Values of other authors in US20260041710A1, “A NOVEL COMBINATION FOR ITS UTILITY IN MICRO AND MACRO VASCULAR COMPLICATIONS” (priority 2022, published 2026).
Read-outs that look alike come from different tables or passages of the source.

How the values were obtained:
[1] = test system: 54 Irish patients of diabetic retinopathy; conditions: single injection

Bevacizumab: full-length antibody that inhibits all isoforms of the VEGF-A family
BCVA (1 month after intravitreal injection, P<0.001): 0.76 | BCVA (before intravitreal injection): 0.90 | patients with greater than 50 microns reduction of macular thickness [1]: 9.2% | patients with greater than 100 microns reduction of macular thickness [1]: 20.3% | patients with less than 50 microns reduction in macular thickness [1]: 40.7% | patients without any improvement [1]: 29.6% | patients with greater than 50 microns reduction of macular thickness ([1]; of 54 patients): 5 patients | patients with less than 50 microns reduction in macular thickness ([1]; of 54 patients): 22 patients | patients without any improvement ([1]; of 54 patients): 16 patients
